# Test results taken from patent publication US11369655B2, “Healthful supplements” (priority 2015, dated 2022).
# Tests used:
# [1] = vapor phase, estimated, cited from earlier work
# [2] = crystalline form at −20° C.; cited from earlier work
# [3] = cited from earlier work
# [4] = biological target: cannabinoid receptor type 1 (CB1) (Homo sapiens, UniProt P21554); conditions: cited from earlier work
# [5] = biological target: peripheral cannabinoid receptor type 2 (CB2) (Homo sapiens, UniProt P34972); conditions: cited from earlier work
# [6] = cited from earlier work; remark: listed apart in the source
# [7] = Acute oral toxicity (LD50) in rats; type: in vivo, rat
# Sequence of cannabinoid receptor type 1 (CB1) (P21554 whole entry, species assumed): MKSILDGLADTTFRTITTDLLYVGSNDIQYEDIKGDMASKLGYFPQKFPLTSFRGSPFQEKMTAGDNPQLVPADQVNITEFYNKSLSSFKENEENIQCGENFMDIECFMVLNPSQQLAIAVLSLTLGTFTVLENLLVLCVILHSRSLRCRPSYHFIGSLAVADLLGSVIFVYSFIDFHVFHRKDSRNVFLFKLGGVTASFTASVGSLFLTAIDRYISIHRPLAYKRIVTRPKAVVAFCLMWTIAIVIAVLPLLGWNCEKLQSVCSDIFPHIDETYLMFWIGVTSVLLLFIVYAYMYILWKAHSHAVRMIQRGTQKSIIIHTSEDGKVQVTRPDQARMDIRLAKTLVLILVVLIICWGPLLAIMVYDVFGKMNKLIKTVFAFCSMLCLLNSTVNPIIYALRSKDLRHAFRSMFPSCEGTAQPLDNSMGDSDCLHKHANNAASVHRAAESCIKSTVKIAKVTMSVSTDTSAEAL
# Sequence of peripheral cannabinoid receptor type 2 (CB2) (P34972 whole entry, species assumed): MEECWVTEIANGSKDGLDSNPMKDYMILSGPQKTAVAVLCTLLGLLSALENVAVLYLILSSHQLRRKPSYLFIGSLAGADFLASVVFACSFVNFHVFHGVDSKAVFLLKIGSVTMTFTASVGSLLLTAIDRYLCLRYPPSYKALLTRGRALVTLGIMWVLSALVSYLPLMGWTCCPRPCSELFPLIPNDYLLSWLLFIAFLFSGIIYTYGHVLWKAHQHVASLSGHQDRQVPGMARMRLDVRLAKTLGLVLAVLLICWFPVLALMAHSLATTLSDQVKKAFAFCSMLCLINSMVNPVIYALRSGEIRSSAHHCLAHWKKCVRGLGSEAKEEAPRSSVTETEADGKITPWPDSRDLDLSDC
structure (smiles),measurement,setting,value
"C=CC(=C)CCC=C(C)C [myrcene, beta-myrcene]","half-life in air, reaction with nitrate radicals",[1]; nitrate radicals,4 min
same,"half-life in air, reaction with ozone",[1]; ozone,34 min
same,"half-life in air, reaction with hydroxyl radicals",[1]; photochemically-produced hydroxyl radicals,1.8 h
"CCCCCC(C)(C)c1ccc([C@H]2CCC[C@@H](O)C2)c(O)c1 (relative stereo) [cp 47,497-C6-homolog, cis-5-(1,1 dimethylhexyl)-2-(3-hydroxycyclohexyl)-phenol]",long term storage stability,[2],stable for at least two years
same,solubility in DMF,[3]; DMF,approximately 10 mg/ml
same,solubility in DMSO,[3]; DMSO,~15 mg/mL
same,solubility in aqueous solutions,[3]; aqueous solutions,sparingly soluble
same,solubility in ethanol,[3]; ethanol,approximately 10 mg/ml
same,solubility in methanol,[3]; methanol,approximately 12.5 mg/ml
same,affinity for CB1,[4],has affinity
same,affinity for CB2,[5],has affinity
CCO [ethyl (grain) alcohol],acute oral toxicity (LD50) in rats,[6]; rat,about 7060 mg/kg
"OCC(O)CO [Vegetable glycerin, glycerol]",LD50 oral rat dosage converted per pound,[7]; conversion of the rat oral LD50,approximately 5.7 grams per pound of body weight
same,LD50 oral rat dosage converted for a 180 pound male,[7]; for a 180 pound male,36 ounces
same,LD50 oral rat dosage,[6]; MSDS,"12,600 milligrams per kilogram of body weight"
